What was measured:
RIPK1 kinase = biological target: T1, RIPK1 kinase (Homo sapiens, UniProt Q13546); assay: In vitro RIPK1 kinase activity assay (ADP-Glo), inhibition by compounds at 1 μM; assay type: biochemical; details: compound 1 μM; ATP 10 μM; MBP substrate 100 μg/mL; read-out: RIPK1 kinase activity inhibition rate range
T1 construct: purchased Promega VA7593
T1 sequence (Q13546 1-671): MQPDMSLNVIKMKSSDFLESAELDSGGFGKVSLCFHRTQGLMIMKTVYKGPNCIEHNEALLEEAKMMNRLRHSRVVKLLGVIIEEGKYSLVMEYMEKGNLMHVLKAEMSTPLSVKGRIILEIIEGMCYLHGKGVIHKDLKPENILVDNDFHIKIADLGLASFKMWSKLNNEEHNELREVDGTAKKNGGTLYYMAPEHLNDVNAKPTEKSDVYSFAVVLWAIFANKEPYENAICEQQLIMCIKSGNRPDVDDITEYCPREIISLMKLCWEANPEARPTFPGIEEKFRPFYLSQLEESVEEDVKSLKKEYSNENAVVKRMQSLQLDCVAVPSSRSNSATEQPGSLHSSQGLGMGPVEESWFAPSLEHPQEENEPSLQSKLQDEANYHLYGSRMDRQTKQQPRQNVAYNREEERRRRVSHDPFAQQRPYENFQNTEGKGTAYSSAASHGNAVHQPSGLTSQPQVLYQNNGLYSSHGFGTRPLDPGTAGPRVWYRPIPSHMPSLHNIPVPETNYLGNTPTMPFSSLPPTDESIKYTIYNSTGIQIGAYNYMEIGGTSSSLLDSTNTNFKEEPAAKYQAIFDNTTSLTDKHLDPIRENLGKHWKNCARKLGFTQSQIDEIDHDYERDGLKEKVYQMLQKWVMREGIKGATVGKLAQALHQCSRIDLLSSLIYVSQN
Experimental: RIPK1 kinase activity was assayed using the ADP-Glo assay and RIPK1 kinase reaction system (Promega, catalog number: VA7593). The RIPK1 kinase activity assay was performed according to the Promega kit manual.
The experimental method was briefly described as below. The concentration of RIPK1 kinase in the RIPK1 kinase reaction system was determined by kinase titration and S/B10. Compounds were diluted with 1× kinase buffer D (1% DMSO), and 1 μL of 100 μM compound DMSO stock solution was added to 19 μL 1× kinase buffer D. RIPK1 kinase was diluted with 1× kinase buffer D. 2.5×ATP/substrate was diluted with 1× kinase buffer D. The final concentration of ATP in the kinase reaction system was 10 μM, and the final concentration of MBP substrate was 100 μg/mL. 1 μL of diluted compound and 2 μL of diluted RIPK1 kinase were mixed, incubated at room temperature for 15 minutes, 2 μL of 2.5×ATP/substrate was added, mixed, and incubated at room temperature for 1 hour. 5 μL of ADP-Glo reagent was added to each well and incubated at room temperature for 1 hour. 10 μL of ADP detection reagent was added to each well and incubated at room temperature for another 0.5-1 hour. The chemiluminescent signal was read by a microplate reader and the inhibition rate of kinase activity was calculated.

U937 cells [1] = assay: Inhibition rate of compound (1 μM) on necroptosis of U937 cells (TSZ-induced, CellTiter-Glo); assay type: cell-based; details: TSZ (hTNF-α, SM-164, Z-VAD-FMK) 20 hours
Experimental: (§1) The biological activity of RIPK1 inhibitors was further evaluated in the inhibition of necroptosis in U937 cells. U937 cell line was purchased from Huatuo Biotechnology and stored in liquid nitrogen. U937 cells were revived before the experiment and cultured in RPMI-1640 medium (supplemented with 10% fetal bovine serum, 100 U/mL penicillin and 100 μg/mL streptomycin) at 37° C., 5% CO2. The activity was further evaluated by the cellular ATP level detected by the Promega CellTiter-Glo 2.0 Assay cell viability assay kit (Catalog No.: G9242).
The experimental method was briefly described as below. U937 cells in the logarithmic growth phase were collected by centrifugation. Cells were diluted at the density of 5×10^5 cells/mL with RPMI 1640 medium (supplemented with 10% fetal bovine serum, 100 U/mL penicillin and 100 μg/mL streptomycin). The cell suspension was added to a white sterile 384-well cell culture plate at 15 μL/well. The test compound was dissolved in DMSO to prepare a 10 mM stock solution and diluted to 10 μM with culture medium. At the same time, a control with the same DMSO volume was set up. Two replicates were added for each concentration. The diluted compound was added to the 384-well cell culture plate containing cells at 2.5 µL/well and incubated at 37° C., 5% CO2 for 15 minutes. Z-VAD-FMK (Biyuntian, catalog number: C1202-5 mg) was dissolved in DMSO to prepare a 20 mM stock solution. SM-164 (Biyuntian, catalog number: SC0114-10 mM) was dissolved in DMSO to prepare a 10 mM stock solution and diluted to 0.1 mM. hTNF-α (Sino Biological Inc., catalog number: 10602-HNAE) was dissolved in sterile water to 10 μg/mL. RPMI 1640 medium (supplemented with 10% fetal bovine serum, 100 U/mL penicillin and 100 μg/mL streptomycin) was used to prepare the TSZ mixture, containing 133.3 μM Z-VAD-FMK, 33.3 ng/ml hTNF-α and 0.3 μM SM-164. After 15 minutes' coculture of compounds and cells, 7.5 μL of TSZ mixture was added to each well, mixed evenly, and cultured at 37° C., 5% CO2 for 20 hours. After 20 hours, the culture plate was removed and placed at room temperature for 30 minutes. 10 μL of CellTiter-Glo reagent pre-equilibrated at room temperature was added to each well and incubated for 10 minutes from light. The chemiluminescence was read by a microplate reader. The inhibition rate was calculated as Inh %=(1−(no TSZ-TSZ & compound)/(no TSZ-TSZ))×100.

U937 cells [2] = assay: EC50 of necroptosis inhibition in U937 cells (TSZ-induced, CellTiter-Glo); assay type: cell-based; details: Homo sapiens, U-937; TSZ (hTNF-α, SM-164, Z-VAD-FMK) 20 hours; 10 concentration points; read-out: EC50 intervals of necroptosis inhibition in U937 cells
Experimental: as §1
The experimental method was briefly described as below. U937 cells in the logarithmic growth phase were collected by centrifugation. Cells were diluted to the cell density of 5×10^5 cells/mL with RPMI 1640 medium (supplemented with 10% fetal bovine serum, 100 U/mL penicillin and 100 μg/mL streptomycin). Cell suspension was added to a white sterile 384-well cell culture plate at 15 μL/well. The test compound was dissolved in DMSO to prepare a 10 mM stock solution. The compound was serially diluted with culture medium at a ratio of 1:3, for a total of 10 concentration points. A control with the same DMSO volume was set, with two replicates for each concentration. The diluted compound was added to the 384-well cell culture plate containing cells at 2.5 μL/well and incubated at 37° C., 5% CO2 for 15 minutes. Z-VAD-FMK (Biyuntian, catalog number: C1202-5 mg) was dissolved in DMSO to prepare a 20 mM stock solution. SM-164 (Biyuntian, catalog number: SC0114-10 mM) was dissolved in DMSO to prepare a 10 mM stock solution and diluted to 0.1 mM. hTNF-α (Sino Biological Inc., catalog number: 10602-HNAE) was dissolved in sterile water to 10 μg/mL. RPMI 1640 medium (supplemented with 10% fetal bovine serum, 100 U/mL penicillin and 100 μg/mL streptomycin) was used to prepare the TSZ mixture, containing 133.3 μM Z-VAD-FMK, 33.3 ng/ml hTNF-α and 0.3 μM SM-164. After 15 minutes' coculture of compounds and cells, 7.5 μL of TSZ mixture was added to each well, mixed evenly, and cultured at 37° C., 5% CO2 for 20 hours. After 20 hours, the culture plate was removed and placed at room temperature for 30 minutes. Then, 10 μL of CellTiter-Glo reagent pre-equilibrated at room temperature was added to each well and incubated. After 10 minutes' incubation at room temperature in the dark, the chemiluminescence were measured using a microplate reader. The inhibition rate was calculated as Inh %=(1−(no TSZ-TSZ & compound)/(no TSZ-TSZ))×100. The EC50 was obtained by fitting the nonlinear regression curve log [inhibitor] vs. response−variable slope (four parameters) in GraphPad Prism.

CN1C(=O)[C@@H](NC(=O)C(=O)NCCc2ccccc2)COc2ccc(C#Cc3ccncc3)cc21 [Example 12, (S)-N^1-(5-methyl-4-oxo-7-(pyridin-4-ylethynyl)-2,3,4,5-tetrahydrobenzo[b][1,4]oxazepin-3-yl)-N^2-phenethyloxalamide]
inhibition at 1 µM (RIPK1 kinase): ≥ 75% | Inhibition rate range of compounds (1 μM) on U937 cell necroptosis (U937 cells [1]): A (A: ≥90%) | EC50 (U937 cells [2]): < 100 nM

CN1C(=O)[C@@H](NC(=O)C(=O)NCCc2ccccc2)COc2ccc(C#Cc3ccccn3)cc21 [Example 14, (S)—N^1-(5-methyl-4-oxo-7-(pyridin-2-ylethynyl)-2,3,4,5-tetrahydrobenzo[b][1,4]oxazepin-3-yl)-N^2-phenethyloxalamide]
inhibition at 1 µM (RIPK1 kinase): ≥ 75% | Inhibition rate range of compounds (1 μM) on U937 cell necroptosis (U937 cells [1]): A (A: ≥90%) | EC50 (U937 cells [2]): < 100 nM

CN1C(=O)[C@@H](NC(=O)C(=O)NCCc2ccccc2)COc2ccc(C#Cc3cncnc3)cc21 [Example 15, (S)—N^1-(5-methyl-4-oxo-7-(pyrimidin-5-ylethynyl)-2,3,4,5-tetrahydrobenzo[b][1,4]oxazepin-3-yl)-N^2-phenethyloxalamide]
inhibition at 1 µM (RIPK1 kinase): ≥ 75% | Inhibition rate range of compounds (1 μM) on U937 cell necroptosis (U937 cells [1]): A (A: ≥90%) | EC50 (U937 cells [2]): < 100 nM

CN1C(=O)[C@@H](NC(=O)C(=O)NCCc2ccccc2)COc2ccc(C#Cc3cccs3)cc21 [Example 16, (S)—N^1-(5-methyl-4-oxo-7-(thiophen-2-ylethynyl)-2,3,4,5-tetrahydrobenzo[b][1,4]oxazepin-3-yl)-N^2-phenethyloxalamide]
inhibition at 1 µM (RIPK1 kinase): 50 to 74% | Inhibition rate range of compounds (1 μM) on U937 cell necroptosis (U937 cells [1]): A (A: ≥90%) | EC50 (U937 cells [2]): < 100 nM

C#Cc1ccc2c(c1)N(C)C(=O)[C@@H](NC(=O)C(=O)NCCc1ccccc1)CO2 [Example 20, (S)—N^1-(7-ethynyl-5-methyl-4-oxo-2,3,4,5-tetrahydrobenzo[b][1,4]oxazepin-3-yl)-N^2-phenethyloxalamide]
inhibition at 1 µM (RIPK1 kinase): 50 to 74% | Inhibition rate range of compounds (1 μM) on U937 cell necroptosis (U937 cells [1]): A (A: ≥90%) | EC50 (U937 cells [2]): < 100 nM

CN1C(=O)[C@@H](NC(=O)C(=O)NCCc2ccccc2)COc2ccc(C#CC3CCNCC3)cc21 [Example 23, (S)—N^1-(5-methyl-4-oxo-7-(piperidin-4-ylethynyl)-2,3,4,5-tetrahydrobenzo[b][1,4]oxazepin-3-yl)-N^2-phenethyloxalamide]
inhibition at 1 µM (RIPK1 kinase): 50 to 74% | Inhibition rate range of compounds (1 μM) on U937 cell necroptosis (U937 cells [1]): A (A: ≥90%) | EC50 (U937 cells [2]): < 100 nM

CN1C(=O)[C@@H](NC(=O)C(=O)NCCc2ccccc2)COc2ccc(C#CC3=CCCCC3)cc21 [Example 26, (S)—N^1-(7-(cyclohex-1-en-1-ylethynyl)-5-methyl-4-oxo-2,3,4,5-tetrahydrobenzo[b][1,4]oxazepin-3-yl)-N^2-phenethyloxalamide]
inhibition at 1 µM (RIPK1 kinase): ≥ 75% | Inhibition rate range of compounds (1 μM) on U937 cell necroptosis (U937 cells [1]): A (A: ≥90%) | EC50 (U937 cells [2]): < 100 nM

CN1C(=O)[C@@H](NC(=O)C(=O)NCCc2ccccc2)COc2ccc(C#Cc3cc(F)cc(F)c3)cc21 [Example 27, (S)—N^1-(7-((3,5-difluorophenyl)ethynyl)-5-methyl-4-oxo-2,3,4,5-tetrahydrobenzo[b][1,4]oxazepin-3-yl)-N^2-phenethyloxalamide]
inhibition at 1 µM (RIPK1 kinase): 50 to 74% | Inhibition rate range of compounds (1 μM) on U937 cell necroptosis (U937 cells [1]): A (A: ≥90%) | EC50 (U937 cells [2]): < 100 nM

CN1C(=O)[C@@H](NC(=O)C(=O)NCCc2ccccc2)COc2ccc(C#CCOc3ccccc3)cc21 [Example 28, (S)—N^1-(5-methyl-4-oxo-7-(3-phenyloxyprop-1-yn-1-yl)-2,3,4,5-tetrahydrobenzo[b][1,4]oxazepin-3-yl)-N^2-phenethyloxalamide]
inhibition at 1 µM (RIPK1 kinase): ≥ 75% | Inhibition rate range of compounds (1 μM) on U937 cell necroptosis (U937 cells [1]): A (A: ≥90%) | EC50 (U937 cells [2]): < 100 nM

C[C@H](O)C#Cc1ccc2c(c1)N(C)C(=O)[C@@H](NC(=O)C(=O)NCCc1ccccc1)CO2 [Example 30, N^1-((S)-7-((S)-3-hydroxybut-1-yn-1-yl)-5-methyl-4-oxo-2,3,4,5-tetrahydrobenzo[b][1,4]oxazepin-3-yl)-N^2-phenethyloxalamide]
inhibition at 1 µM (RIPK1 kinase): 50 to 74% | Inhibition rate range of compounds (1 μM) on U937 cell necroptosis (U937 cells [1]): A (A: ≥90%) | EC50 (U937 cells [2]): 100 to 500 nM

CN1C(=O)[C@@H](NC(=O)C(=O)NCc2ccccc2F)COc2ccc(C#CCCO)cc21 [Example 38, (S)—N^1-(2-fluorobenzyl)-N^2-(7-(4-hydroxybut-1-yn-1-yl)-5-methyl-4-oxo-2,3,4,5-tetrahydrobenzo[b][1,4]oxazepin-3-yl)oxalamide]
inhibition at 1 µM (RIPK1 kinase): 50 to 74% | Inhibition rate range of compounds (1 μM) on U937 cell necroptosis (U937 cells [1]): A (A: ≥90%) | EC50 (U937 cells [2]): 100 to 500 nM

Source: US20250368633A1, “AZEPINE FUSED RING COMPOUND AS RIPK1 INHIBITOR AND USE THEREOF” (ARTIVILA BIOPHARMA, priority 2022, published 2025)
